Source: patent publication US8828994B2, “Di- and tri-substituted oxathiazine derivatives, method for the production thereof, use thereof as medicine and drug containing said derivatives and use thereof” (SANOFI, priority 2011, dated 2014)

Biological target: human 11β-HSD1 microsome fraction (Homo sapiens, UniProt P28845)
Experiment: Enzymatic 11beta-HSD1 test (SPA-based detection)
Format: biochemical
Conditions: [1,2-3H]-cortisone, NADPH, 37° C., 1 hour, read-out: IC50 (nM), biological activity
Protocol: First of all, 20 μl of the human 11β-HSD1 microsome fraction (0.2 μg of protein), prepared in 50 mM HEPES, 0.1% BSA (w/v), were applied to a plate with 384 wells. The test compounds (0.09 μl) were applied to the assay plate in 100% DMSO. The reaction was started by addition of 20 μl of [1,2-^3H]-cortisone (0.1 μCi/[…]) in assay buffer comprising 25 mM HEPES, 100 mM KCl, 5 mM NaCl, 2 mM MgCl2 and 0.25 mM NADPH. The plate was agitated at 37° C. for 1 hour. At the same time, a stop solution comprising 20 mg/ml SPA-PVT beads, 1.6 mg/ml monoclonal cortisol antibody and 0.01 mM SSR110887 (inhibitor from the Biovitrium patent) in 50 mM HEPES, 1 M NaCl and 1 M KCl was stirred at room temperature. To stop the reaction, 25 μl of the stop solution were added to each well. The plate was agitated gently at room temperature for 1 further hour and then centrifuged at 500 gav for 1 min, in order that the SPA beads could settle out. […] The comparative compound was glycyrrhetinic acid.
Protein and radioactive substrate were dispensed with a Biomek FX unit (Beckman Coulter) for handling liquids. The test compounds were added with a Cybi-Well equipped with a 90 n1 pin tool (CyBio).
Lit.: Solly S, Mundt S S, Zokian H J, Juy-Fang Ding G, Hermanowski-Vosatka A, Strulovici B and Zheng W. High-throughput screening of 11β-Hydroxysteroid dehydrogenase type 1 in scintillation proximity format.

human 11β-HSD1 microsome fraction, sequence (P28845 whole entry): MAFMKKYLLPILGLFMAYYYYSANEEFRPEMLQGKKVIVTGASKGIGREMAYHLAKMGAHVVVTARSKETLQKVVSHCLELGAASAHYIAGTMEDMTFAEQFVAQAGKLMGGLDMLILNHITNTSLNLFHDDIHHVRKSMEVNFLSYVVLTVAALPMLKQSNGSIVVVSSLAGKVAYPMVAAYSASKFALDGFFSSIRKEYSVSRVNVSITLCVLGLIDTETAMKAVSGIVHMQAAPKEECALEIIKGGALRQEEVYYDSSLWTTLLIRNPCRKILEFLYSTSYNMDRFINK

IC50 [nM]	SMILES
438	CC(C)(C)C1OC(NC2CCCCC2)=NS(=O)(=O)C12CC2 (centres unmarked) [Example 5, (8-tert-Butyl-4,4-dioxo-7-oxa-4lambda6-thia-5-aza-spiro[2.5]oct-5-en-6-yl)-cyclohexyl-amine]
598	CC1OC(NC2CCCCC2)=NS(=O)(=O)C12CC2 (centres unmarked) [Example 6, Cyclohexyl-(8-methyl-4,4-dioxo-7-oxa-4lambda6-thia-5-aza-spiro[2.5]oct-5-en-6-yl)-amine]

Continued, compound first:

SMILES	IC50 [nM]
CCCC1OC(NC2CCCCC2)=NS(=O)(=O)C12CC2 (centres unmarked) [Example 4, Cyclohexyl-(4,4-dioxo-8-propyl-7-oxa-4lambda6-thia-5-aza-spiro[2.5]oct-5-en-6-yl)-amine]	518
O=S1(=O)N=C(NC2CCCCC2)OC(c2ccccc2)C12CC2 (centres unmarked) [Example 1, Cyclohexyl-(4,4-dioxo-8-phenyl-7-oxa-4lambda6-thia-5-aza-spiro[2.5]oct-5-en-6-yl)-amine]	355
CC(C)C1OC(NC2CCCCC2)=NS(=O)(=O)C12CC2 (centres unmarked) [Example 3, Cyclohexyl-(8-isopropyl-4,4-dioxo-7-oxa-4lambda6-thia-5-aza-spiro[2.5]oct-5-en-6-yl)-amine]	629
